Results: US20090054403A1, “Treatment of Post-Traumatic Stress Disorder” (priority 2007, published 2009)
Entries after “also recorded” stand apart in the source; their conditions may differ. One block for each compound: values may come before it.

Key:
parkinsonian symptoms = test: Parkinsonian clinical rating scale (CRS) in MPTP-lesioned monkeys; assay type: in vivo, squirrel monkeys (Saimiri sciureus)
Method: A total of 24 squirrel monkeys (Saimiri sciureus), fourteen females and ten males were used in this study. The twenty-four animals were randomly assigned to one of four treatment groups, with 6 animals per group. The groups consisted of the following (1) group A: placebo (2) group B: 1 mg/kg/day; (3) group C: 4 mg/kg/day; and (4) group D: 10 mg/kg/day. In Group B, one animal died acutely following MPTP-lesioning, and was not replaced.
Animals were lesioned by the administration of MPTP at a concentration of 2.0 mg/kg (free-base) via subcutaneous injection to achieve a parkinsonian state (see FIGS. 151-156). A post-MPTP lesioning behavioral assessment was carried out 2 to 4 weeks after the last MPTP-Iesioning. Locomotor activity was monitored by IRAM in 60-minute sessions for 3 to 5 days. Clinical behavior (CAS) was assessed by one to three individuals rating over a period of 3 to 5 days.
Animals were tested for response to L-Dopa and the efficacy of drug nepicastat. Testing was carried out 4 to 12 weeks after the last MPTP dose. Twenty-tour squirrel monkeys were randomly assigned to 4 groups; Group A (6 animals) received placebo (water) treatment; Group B (5 animals) received drug nepicastat at 1 mg/kg/day (0.5 mg/kg twice daily); Group C (6 animals) received 4 mg/kg/day (2 mg/kg twice daily); and Group D (6 animals) received 10 mg/kg/day (5 mg/kg twice daily).
L-Dopa was administered at a concentration of either 2.5, 5, or 7.5 mg/kg by oral gavage twice daily (at 10 am and 2 pm) for 7 consecutive days. Behavior was determined by IRAM and CRS. Clinical rating was carried out 60 to 90 minutes following the 10 am morning dose on the last 4 days of treatment. Raters (one to three individuals) were blinded to the different treatment groups. IRAM assessment were preformed for 90 minutes immediately following drug administration at 2 pm on the last 2 to 5 days of drug treatment. There was a minimum 2 day washout period between each treatment dose.
Drug nepicastat or water (as placebo) was administered for 12 days following a minimum 2 day washout after L-Dopa dosing. Drug was administered twice daily at 10 am and 2 pm by oral gavage. Behavior was rated by IRAM and CRS. The CRS was conducted in the morning, 60 to 90 minutes after the 10 am dose of nepicastat on the last 5 days of drug treatment. Raters (one to three individuals) were blinded to the different treatment groups. IRAM assessments were preformed for 90 minutes immediately following drug administration at 2 pm on the last 5 days of drug treatment.
Eight parkinsonian features were rated in each animal and the total score was derived from the sum of these eight features. […]

[1] = system: mean arterial pressure and heart rate; test: Heart rate and mean arterial pressure in restrained SHR with SCH-23390 pretreatment; assay type: in vivo, spontaneous hypertensive rats; details: 200 μg/kg iv, 15 min post-iv period
Source text: Male, spontaneous hypertensive rats (280-345 g; Charles River Labs, Kingston, N.Y.) were fasted overnight then anesthetized with ether. A femoral artery and femoral vein were cannulated with PE50 tubing for recording of blood pressure and administration of compounds, respectively. Animals were then placed in MAYO restrainers and their feet loosely taped to the restrainer. Heparinized saline (50 units sodium heparin/ml) was used to maintain patency of each cannula throughout the experiment. The following parameters were continuously recorded using Modular Instruments MI^2 BioReport™ software installed on an IBM personal computer: mean arterial pressure (MAP), heart rate (HR), and the change from baseline for each parameter at specified time points in the experiment.
All compounds were dissolved on the day of use. nepicastat was dissolved in deionized water (vehicle) to a free base concentration of 1 mg/ml. Oral dosing volume for nepicastat or vehicle was 10 ml/kg. SCH-23390 was dissolved in saline (vehicle) to a free base concentration of 0.2 mg/ml. […] or saline were administered intravenously as a bolus in a volume of 1.0 ml/kg followed by 0.2 ml flush of isotonic saline.
Following surgical preparation, each animal was allowed a minimum one hour recovery period. Animals were randomly assigned to four treatment groups: vehicle (iv)/vehicle (po); vehicle (iv)/nepicastat (po); SCH-23390 (iv)/vehicle (po); or SCH-23390 (iv)/nepicastat (po). Once animals were stabilized (minimum one hour), baseline blood pressure and heart rate was determined by taking an average of each parameter over a 15 min period of time. Once baseline blood pressure and heart rate were established, animals were dosed intravenously with either SCH-23390 (200 μg/kg) or vehicle (saline, 1 ml/kg). Fifteen minutes later, animals were orally dosed with either nepicastat (10 mg/kg) or vehicle (deionized water, 10 ml/kg).
Recorded parameters were measured 15 min prior to intravenous dosing to establish baseline blood pressure and heart rate. Recorded parameters were then measured at 5, 10, and 15 min following intravenous administration of SCH-23390 or vehicle. Following oral administration of nepicastat or vehicle, recorded parameters were measured at 15, 30, 60, 90, 120, 150, 180, 210, and 240 min.
At the end of the experiment, each animal was anesthetized with halothane and euthanized via decapitation. The cortex, left ventricle (apex), and mesenteric artery were dissected out, weighed, and fixed in 0.4 M perchloric acid. […] Blood pressure and heart rate were analyzed separately. The change from baseline for blood pressure and heart rate were analyzed by an analysis of variance (ANOVA) with effects for treatment, time, and their interaction. […]

[2] = system: blood pressure, heart rate, motor activity; test: Radio-telemetry blood pressure, heart rate, motor activity in normotensive rats, 7 days; assay type: in vivo, normotensive Wistar rats (Crl:COBS(WI)BR); details: 10 mg/kg po
Method: Male Crl:COBS(WI)BR rats of 15 weeks old were used. Twenty-four rats were chronically implanted with telemetry implants (TA11PA-C40, Data Sciences, Inc., St. Paul, Minn.) for measurement of arterial blood pressure, heart rate and motor activity. The rat was anesthetized with pentobarbital sodium (60 mg/kg, ip) and its abdomen shaved. Under aseptic conditions, an incision was made on midline. The abdominal aorta was exposed, and cannulated with the catheter of a telemetry transmitter unit. After the transmitter was sutured to the abdominal musculature, the skin was closed. Each rat was allowed to recover for at least 2 weeks before being subjected to drug administration. Three days prior to the start of the experiment, the rats were randomly divided into 4 treatment groups: Vehicle (p.o.), Hydralazine (10 mg/kg, p.o.), nepicastat (30 mg/kg, p.o.), nepicastat (100 mg/kg, p.o.).
Systolic blood pressure (SBP), diastolic blood pressure (DBP), mean blood pressure (MBP), heart rate (HR), and motor activity (MA) were monitored. After the pre-dose values for these parameters were established, respective groups of rats received a 7 day daily treatment of vehicle, nepicastat or hydralazine.
Both nepicastat and hydralazine were prepared in water with traces of Tween 80. All doses were given orally to the rat in 10 ml/kg and were expressed as free base equivalents.
A computerized data collection system was used to continuously collect data on SBP, DBP, MBP, HR, and MA. Data on each rat were collected every 5 min. for 10 sec. These were then averaged hourly and standard errors of the mean (SE) calculated. In this report, only data on MBP, HR and MA were presented. […] Body weights were recorded daily.

serum T3 and T4 levels = test: Thyroid function (serum T3, T4) in iodine-deficient rats, 10 days; assay type: in vivo, Sprague-Dawley rats; details: for effect on serum T3 and T4 levels: nepicastat 2.0 and 6.2 mg/kg b.i.d., methimazole 1 mg/kg b.i.d., po, 10 days
Method: Male Sprague-Dawley rats, weighing 180-200 grams, were fed an iodine deficient diet (Purina, 5891C, Lot 1478, 0.066±0.042 mg iodine/kg sample) ad libitum 14 days prior to treatment. Animals were weighed and randomly assigned to one of the following treatment groups (n=12 per group): Nepicastat at 2.0 mg/kg, Nepicastat at 6.2 mg/kg, R, Methimazole at 1 mg/kg, or vehicle at 1 ml/kg. Each group of rats was dosed orally in the evening and the following morning, approximately 12 hours apart, for 10 consecutive days.
Orbital blood samples were taken at day—3, 0, 3, 7, and 9 (day 0 was the first day of dosing). Serum samples were analyzed for T3 and T4 levels using a radioimmunoassay.
To statistically evaluate changes in T3 and T4 levels, a change from baseline was calculated from the day-3 time point. A non-parametric two-way within subject analysis of variance (ANOVA) was conducted. Also a one-way ANOVA was performed to detect if a significant difference from control occurred. Pairwise analyses between controls and each treatment group were carried out using Fisher's LSD strategy to control the experiment-wise error rate. For statistical analysis of catecholamine levels, a one-way ANOVA with factor DOSE was performed. Pairwise analyses between treated and controls at each dose were carried out using Fisher's LSD strategy to control the experiment-wise error rate.

blood pressure = test: Radio-telemetry blood pressure in SHR, up to 30 days; assay type: in vivo; details: 1 mg/kg, p.o.
[3] = Plasma levels of nepicastat and N-acetyl metabolite in dogs, 2 mg/kg b.i.d.; assay type: in vivo, beagle dogs; details: after nepicastat 2 mg/kg bid, any of the days
Method: Male Beagle dogs (Marshall farms, North Rose, N.Y.) weighing between 9-16 kg were used in the study. The animals were allowed water ad libitum and given food once daily at ˜10.00 AM. Animals were randomly assigned to one of the following treatment groups (n=8/group): placebo (empty capsule), or nepicastat at 2 mg/kg b.i.d (4 mg/kg/day). Each animal received 2 doses daily, morning and afternoon (8-10 hours apart). Daily blood samples (10 ml) were drawn 6 h after the AM dose for measurement of plasma levels of nepicastat and catecholamines. The blood was collected in tubes containing heparin and glutathione and centrifuged at −4° C. within 1 h of collection. The plasma was separated and divided into two samples, one for the measurement of plasma catecholamines and the other for analysis of nepicastat.
Plasma NE, DA and EPI were anaylysed by HPLC using electrochemical detection. Plasma concentration of nepicastat was determined by HPLC using electrochemical detection.

Structure (SMILES): N[C@@H](Cc1ccc(O)c(O)c1)C(=O)O [L-Dopa, reference compound]
- CRS / parkinsonian symptoms compared to post-MPTP (pre-treatment) state (parkinsonian symptoms; L-Dopa 2.5 mg/kg): No groups of animals demonstrated significant improvement; also recorded: no significant effect
- CRS / parkinsonian symptoms compared to post-MPTP (pre-treatment) state (parkinsonian symptoms; L-Dopa 5 and 7.5 mg/kg, except Group B at 5 and Group C at 7.5 mg/kg): significant improvement; also recorded: significant effect

Structure (SMILES): CN1CCc2cc(Cl)c(O)cc2[C@@H](c2ccccc2)C1 [SCH-23390, reference compound]
- decrease in mean arterial pressure [1]: 5±1 mmHg

Structure (SMILES): NNc1nncc2ccccc12 [Hydralazine, reference compound]
- time in which hypotensive effect subsided [2]: 10 h
- maximal decrease in MBP ([2]; within 1 hr after dosing on day 1): −24 mmHg

- reduction in serum levels of T3 (serum T3 and T4 levels; day 3, 4 h post-dose): 31%
- reduction in serum levels of T4 (serum T3 and T4 levels; day 3, 4 h post-dose): 46%
- reduction in serum levels of T3 (serum T3 and T4 levels; day 7, 4 h post-dose): 42%
- reduction in serum levels of T4 (serum T3 and T4 levels; day 7, 4 h post-dose): 58%
- reduction in serum levels of T3 (serum T3 and T4 levels; day 9, 4 h post-dose): 44%
- T4 levels vs vehicle (serum T3 and T4 levels; day nine): only marginally (p<0.10) lower
- effect on serum T3 and T4 levels (serum T3 and T4 levels; listed as methimazole): significantly reduced
Structure (SMILES): Cn1cc[nH]c1=S [Methimazole, methimazole]
- effect on serum T3 and T4 levels (serum T3 and T4 levels): significantly (p<0.05) lowered T3 levels on all treatment days

Structure (SMILES): CCOC(=O)[C@H](CCc1ccccc1)N[C@@H](C)C(=O)N1CCC[C@H]1C(=O)O [enalapril, reference compound]
- effect on blood pressure, enalapril alone (blood pressure): failed to lower blood pressure
- reduction in left ventricular mass, enalapril alone (blood pressure): did not occur

- plasma levels of the N-acetyl metabolite [3]: No significant levels
Structure (SMILES): CC(=O)NCc1c[nH]c(=S)n1[C@H]1CCc2c(F)cc(F)cc2C1 [N-acetyl metabolite of nepicastat]
